Key:
Leukotriene C4 synthase = target: T1, Leukotriene C4 synthase (Cavia porcellus, UniProt A6XA80); type: tissue-based, Lung;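 note: enzyme inhibition assay of leukotriene C4 synthase, using LTA4 as the substrate; in other assays of this panel Not Active means under 50% inhibition at 10 µM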
T1 sequence (A6XA80 whole entry): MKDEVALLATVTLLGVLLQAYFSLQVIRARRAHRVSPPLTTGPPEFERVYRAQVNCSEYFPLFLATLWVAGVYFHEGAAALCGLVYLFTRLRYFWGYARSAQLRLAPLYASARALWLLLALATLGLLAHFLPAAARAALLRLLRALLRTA

[1] = DRUGMATRIX: Platelet-Derived Growth Factor (PDGF) radioligand binding (ligand: [125I] PDGF); type: cell-based; conditions: nih3t3; Not Active = under 50% inhibition at 10 µM
[2] = target: Mitogen-activated protein kinase 3 (Homo sapiens, UniProt P27361); assay: DRUGMATRIX: Protein Serine/Threonine Kinase, ERK1 enzyme inhibition (substrate: Myelin Basic Protein); design: species or system Escherichia coli; conditions: Not Active = under 50% inhibition at 10 µM
[3] = target: Mitogen-activated protein kinase 1 (Homo sapiens, UniProt P28482); assay: DRUGMATRIX: Protein Serine/Threonine Kinase, ERK2 enzyme inhibition (substrate: Myelin Basic Protein); design: species or system Escherichia coli; conditions: Not Active = under 50% inhibition at 10 µM
Cathepsin G = target: T2, Cathepsin G (Homo sapiens, UniProt P08311); type: tissue-based; conditions: neutrophil;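 note: inhibition of Cathepsin G enzyme activity, tested on an AMC-conjugated peptide substrate; in other assays of this panel Not Active means under 50% inhibition at 10 µM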
T2 sequence (P08311 whole entry): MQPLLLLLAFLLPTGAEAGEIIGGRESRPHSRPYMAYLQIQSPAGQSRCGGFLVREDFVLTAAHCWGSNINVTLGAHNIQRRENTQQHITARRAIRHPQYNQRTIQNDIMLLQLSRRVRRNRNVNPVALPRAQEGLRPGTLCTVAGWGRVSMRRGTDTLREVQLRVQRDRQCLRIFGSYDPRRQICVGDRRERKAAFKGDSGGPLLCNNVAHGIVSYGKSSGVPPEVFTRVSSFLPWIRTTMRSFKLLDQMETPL

Cytochrome P450 2C9 = Cytochrome P450 2C9 (Homo sapiens, UniProt P11712); conditions: bti-tn-5b1-4; note: in other assays of this panel Not Active means under 50% inhibition at 10 µM
[4] = target: T3, Cholecystokinin receptor type A (Homo sapiens, UniProt P32238); type: cell membranes, Membrane; conditions: 1321-n1; note: in other assays of this panel Not Active means under 50% inhibition at 10 µM
T3 sequence (P32238 whole entry): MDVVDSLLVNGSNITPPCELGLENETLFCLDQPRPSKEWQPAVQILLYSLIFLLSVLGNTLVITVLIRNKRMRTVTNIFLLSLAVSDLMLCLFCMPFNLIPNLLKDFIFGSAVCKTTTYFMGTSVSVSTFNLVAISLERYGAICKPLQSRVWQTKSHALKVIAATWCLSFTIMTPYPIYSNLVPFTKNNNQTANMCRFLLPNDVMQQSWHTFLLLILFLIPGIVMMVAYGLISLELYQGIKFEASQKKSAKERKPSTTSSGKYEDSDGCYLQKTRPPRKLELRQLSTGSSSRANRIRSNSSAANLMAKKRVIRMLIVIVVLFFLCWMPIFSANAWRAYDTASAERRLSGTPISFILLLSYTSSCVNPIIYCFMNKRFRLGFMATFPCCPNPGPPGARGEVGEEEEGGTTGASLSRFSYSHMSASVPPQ

Cytochrome P450 2E1 = Cytochrome P450 2E1 (Homo sapiens, UniProt P05181); conditions: bti-tn-5b1-4; note: in other assays of this panel Not Active means under 50% inhibition at 10 µM
[5] = DRUGMATRIX: Potassium Channel [KATP] radioligand binding (ligand: [3H] Glyburide); type: cell membranes, Membrane; conditions: hit-t15; Not Active = under 50% inhibition at 10 µM

Mitogen-activated protein kinase 3, sequence (P27361 whole entry): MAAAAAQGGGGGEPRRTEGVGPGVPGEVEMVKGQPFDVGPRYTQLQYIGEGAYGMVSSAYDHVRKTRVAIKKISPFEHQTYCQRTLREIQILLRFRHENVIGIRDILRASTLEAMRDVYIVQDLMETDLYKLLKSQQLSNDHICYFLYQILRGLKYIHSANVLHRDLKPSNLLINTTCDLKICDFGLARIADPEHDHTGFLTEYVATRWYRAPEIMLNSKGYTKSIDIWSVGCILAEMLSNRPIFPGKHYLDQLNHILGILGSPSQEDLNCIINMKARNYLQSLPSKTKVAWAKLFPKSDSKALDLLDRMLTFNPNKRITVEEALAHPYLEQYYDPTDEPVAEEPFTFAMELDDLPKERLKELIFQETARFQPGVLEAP
Cytochrome P450 2C9, sequence (P11712 whole entry): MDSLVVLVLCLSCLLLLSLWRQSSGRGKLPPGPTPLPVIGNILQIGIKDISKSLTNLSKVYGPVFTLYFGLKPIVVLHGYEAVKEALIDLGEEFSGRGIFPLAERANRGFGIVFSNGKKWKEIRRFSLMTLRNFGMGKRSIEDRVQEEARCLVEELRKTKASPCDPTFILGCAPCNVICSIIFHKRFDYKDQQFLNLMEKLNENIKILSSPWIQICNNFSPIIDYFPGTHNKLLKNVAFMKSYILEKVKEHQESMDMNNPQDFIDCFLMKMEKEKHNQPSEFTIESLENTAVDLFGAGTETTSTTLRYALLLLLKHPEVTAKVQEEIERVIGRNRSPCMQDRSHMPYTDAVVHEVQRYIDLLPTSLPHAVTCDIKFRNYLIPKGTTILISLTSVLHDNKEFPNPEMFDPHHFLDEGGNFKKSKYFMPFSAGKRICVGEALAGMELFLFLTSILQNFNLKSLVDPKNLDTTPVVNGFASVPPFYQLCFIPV
Cytochrome P450 2E1, sequence (P05181 whole entry): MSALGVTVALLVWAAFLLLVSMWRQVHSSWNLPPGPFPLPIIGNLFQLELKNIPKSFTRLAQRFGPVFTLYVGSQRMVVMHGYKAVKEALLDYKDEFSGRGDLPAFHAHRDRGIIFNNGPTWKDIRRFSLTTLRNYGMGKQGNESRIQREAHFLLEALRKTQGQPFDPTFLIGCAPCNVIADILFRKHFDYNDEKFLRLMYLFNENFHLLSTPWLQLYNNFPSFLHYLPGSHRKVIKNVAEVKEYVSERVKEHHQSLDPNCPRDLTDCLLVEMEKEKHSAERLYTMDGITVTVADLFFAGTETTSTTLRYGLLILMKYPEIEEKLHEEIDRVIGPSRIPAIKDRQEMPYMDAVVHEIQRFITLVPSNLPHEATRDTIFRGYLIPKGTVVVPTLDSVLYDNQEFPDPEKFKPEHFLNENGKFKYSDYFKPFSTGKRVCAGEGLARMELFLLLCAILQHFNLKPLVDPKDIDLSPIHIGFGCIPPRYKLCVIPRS
Mitogen-activated protein kinase 1, sequence (P28482 whole entry): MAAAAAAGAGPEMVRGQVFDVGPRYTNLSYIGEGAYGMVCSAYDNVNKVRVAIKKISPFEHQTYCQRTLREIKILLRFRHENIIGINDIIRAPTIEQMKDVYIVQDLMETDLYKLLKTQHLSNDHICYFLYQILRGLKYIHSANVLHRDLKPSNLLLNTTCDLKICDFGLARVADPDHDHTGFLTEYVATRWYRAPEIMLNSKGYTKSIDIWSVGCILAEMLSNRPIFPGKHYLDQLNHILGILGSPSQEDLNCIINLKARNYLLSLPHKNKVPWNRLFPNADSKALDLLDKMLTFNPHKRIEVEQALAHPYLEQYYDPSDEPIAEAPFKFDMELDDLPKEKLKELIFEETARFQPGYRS

Nc1nc2c(ncn2COCCO)c(=O)[nH]1 [ACYCLOVIR]
Not Active: IC50 (Leukotriene C4 synthase) | IC50 [1] | Ki [1] | IC50 [2] | IC50 [3] | IC50 (Cathepsin G) | IC50 (Cytochrome P450 2C9) | Ki (Cytochrome P450 2C9) | IC50 [4] | IC50 (Cytochrome P450 2E1) | Ki (Cytochrome P450 2E1) | IC50 [5] | Ki [5]

Cc1c(C)c2c(c(C)c1O)CC[C@@](C)(CCC[C@H](C)CCC[C@H](C)CCCC(C)C)O2 [ALPHA-TOCOPHEROL]
Not Active: IC50 (Leukotriene C4 synthase) | IC50 [1] | Ki [1] | IC50 [2] | IC50 [3] | IC50 (Cathepsin G) | IC50 (Cytochrome P450 2C9) | Ki (Cytochrome P450 2C9) | IC50 [4] | IC50 (Cytochrome P450 2E1) | Ki (Cytochrome P450 2E1) | IC50 [5] | Ki [5]

NCCCCCC(=O)O [AMINOCAPROIC ACID]
Not Active: IC50 (Leukotriene C4 synthase) | IC50 [1] | Ki [1] | IC50 [2] | IC50 [3] | IC50 (Cathepsin G) | IC50 (Cytochrome P450 2C9) | Ki (Cytochrome P450 2C9) | IC50 [4] | IC50 (Cytochrome P450 2E1) | Ki (Cytochrome P450 2E1) | IC50 [5] | Ki [5]

CCC1(c2ccc(N)cc2)CCC(=O)NC1=O (centres undefined) [AMINOGLUTETHIMIDE]
Not Active: IC50 (Leukotriene C4 synthase) | IC50 [1] | Ki [1] | IC50 [2] | IC50 [3] | IC50 (Cathepsin G) | IC50 (Cytochrome P450 2C9) | Ki (Cytochrome P450 2C9) | IC50 [4] | IC50 (Cytochrome P450 2E1) | Ki (Cytochrome P450 2E1) | IC50 [5] | Ki [5]

Cc1ccc(/N=C/N(C)/C=N/c2ccc(C)cc2C)c(C)c1 [AMITRAZ]
Not Active: IC50 (Leukotriene C4 synthase) | IC50 [1] | Ki [1] | IC50 [2] | IC50 [3] | IC50 (Cathepsin G) | IC50 (Cytochrome P450 2C9) | Ki (Cytochrome P450 2C9) | IC50 [4] | IC50 (Cytochrome P450 2E1) | Ki (Cytochrome P450 2E1) | IC50 [5] | Ki [5]

CCOC(=O)C1=C(COCCN)NC(C)=C(C(=O)OC)C1c1ccccc1Cl (centres undefined) [AMLODIPINE]
Not Active: IC50 (Leukotriene C4 synthase) | IC50 [1] | Ki [1] | IC50 [2] | IC50 [3] | IC50 (Cathepsin G) | IC50 (Cytochrome P450 2C9) | Ki (Cytochrome P450 2C9) | IC50 [4] | IC50 (Cytochrome P450 2E1) | Ki (Cytochrome P450 2E1) | IC50 [5] | Ki [5]

COc1ccc(C[C@H]2NC[C@H](O)[C@H]2OC(C)=O)cc1 [ANISOMYCIN]
Not Active: IC50 (Leukotriene C4 synthase) | Ki (Leukotriene C4 synthase) | IC50 [1] | Ki [1] | IC50 [2] | Ki [2] | IC50 [3] | Ki [3] | IC50 (Cathepsin G) | Ki (Cathepsin G) | IC50 (Cytochrome P450 2C9) | Ki (Cytochrome P450 2C9) | IC50 [4] | Ki [4] | IC50 (Cytochrome P450 2E1) | Ki (Cytochrome P450 2E1) | IC50 [5] | Ki [5]

Nc1ncn([C@@H]2O[C@H](CO)[C@@H](O)[C@H]2O)c(=O)n1 [AZACITIDINE]
Not Active: IC50 (Leukotriene C4 synthase) | IC50 [1] | Ki [1] | IC50 [2] | IC50 [3] | IC50 (Cathepsin G) | IC50 (Cytochrome P450 2C9) | Ki (Cytochrome P450 2C9) | IC50 [4] | IC50 (Cytochrome P450 2E1) | Ki (Cytochrome P450 2E1) | IC50 [5] | Ki [5]

CN(C)C(=O)Oc1cc(OC(=O)N(C)C)cc(C(O)CNC(C)(C)C)c1 (centres undefined) [BAMBUTEROL]
Not Active: IC50 (Leukotriene C4 synthase) | IC50 [1] | Ki [1] | IC50 [2] | IC50 [3] | IC50 (Cathepsin G) | IC50 (Cytochrome P450 2C9) | Ki (Cytochrome P450 2C9) | IC50 [4] | IC50 (Cytochrome P450 2E1) | Ki (Cytochrome P450 2E1) | IC50 [5] | Ki [5]

c1ccc2c(c1)c1cccc3ccc4cccc2c4c31 [BENZO[E]PYRENE]
Not Active: IC50 (Leukotriene C4 synthase) | IC50 [1] | Ki [1] | IC50 [2] | IC50 [3] | IC50 (Cathepsin G) | IC50 (Cytochrome P450 2C9) | Ki (Cytochrome P450 2C9) | IC50 [4] | IC50 (Cytochrome P450 2E1) | Ki (Cytochrome P450 2E1) | IC50 [5] | Ki [5]

CNCCc1ccccn1 [BETAHISTINE]
Not Active: IC50 (Leukotriene C4 synthase) | IC50 [1] | Ki [1] | IC50 [2] | IC50 [3] | IC50 (Cathepsin G) | IC50 (Cytochrome P450 2C9) | Ki (Cytochrome P450 2C9) | IC50 [4] | IC50 (Cytochrome P450 2E1) | Ki (Cytochrome P450 2E1) | IC50 [5] | Ki [5]

CC(C)C(Br)C(=O)NC(N)=O (centres undefined) [BROMISOVALUM]
Not Active: IC50 (Leukotriene C4 synthase) | IC50 [1] | Ki [1] | IC50 [2] | IC50 [3] | IC50 (Cathepsin G) | IC50 (Cytochrome P450 2C9) | Ki (Cytochrome P450 2C9) | IC50 [4] | IC50 (Cytochrome P450 2E1) | Ki (Cytochrome P450 2E1) | IC50 [5] | Ki [5]

CCCC1O[C@@H]2C[C@H]3[C@@H]4CCC5=CC(=O)C=C[C@]5(C)[C@H]4[C@@H](O)C[C@]3(C)[C@]2(C(=O)CO)O1 (some centres undefined) [BUDESONIDE]
Not Active: IC50 (Leukotriene C4 synthase) | IC50 [1] | Ki [1] | IC50 [2] | IC50 [3] | IC50 (Cathepsin G) | IC50 (Cytochrome P450 2C9) | Ki (Cytochrome P450 2C9) | IC50 [4] | IC50 (Cytochrome P450 2E1) | Ki (Cytochrome P450 2E1) | IC50 [5] | Ki [5]

CC(NC(C)(C)C)C(=O)c1cccc(Cl)c1 (centres undefined) [BUPROPION]
Not Active: IC50 (Leukotriene C4 synthase) | IC50 [1] | Ki [1] | IC50 [2] | IC50 [3] | IC50 (Cathepsin G) | IC50 (Cytochrome P450 2C9) | Ki (Cytochrome P450 2C9) | IC50 [4] | IC50 (Cytochrome P450 2E1) | Ki (Cytochrome P450 2E1) | IC50 [5] | Ki [5]

CN(Cc1ccc(C(C)(C)C)cc1)Cc1cccc2ccccc12 [BUTENAFINE]
Not Active: IC50 (Leukotriene C4 synthase) | IC50 [1] | Ki [1] | IC50 [2] | IC50 [3] | IC50 (Cathepsin G) | IC50 (Cytochrome P450 2C9) | Ki (Cytochrome P450 2C9) | IC50 [4] | IC50 (Cytochrome P450 2E1) | Ki (Cytochrome P450 2E1) | IC50 [5] | Ki [5]

C[C@H](CS)C(=O)N1CCC[C@H]1C(=O)O [CAPTOPRIL]
Not Active: IC50 (Leukotriene C4 synthase) | IC50 [1] | Ki [1] | IC50 [2] | IC50 [3] | IC50 (Cathepsin G) | IC50 (Cytochrome P450 2C9) | Ki (Cytochrome P450 2C9) | IC50 [4] | IC50 (Cytochrome P450 2E1) | Ki (Cytochrome P450 2E1) | IC50 [5] | Ki [5]

Cc1ccc(-c2cc(C(F)(F)F)nn2-c2ccc(S(N)(=O)=O)cc2)cc1 [CELECOXIB]
Not Active: IC50 (Leukotriene C4 synthase) | IC50 [1] | Ki [1] | IC50 [2] | IC50 [3] | IC50 (Cathepsin G) | IC50 (Cytochrome P450 2C9) | Ki (Cytochrome P450 2C9) | IC50 [4] | IC50 (Cytochrome P450 2E1) | Ki (Cytochrome P450 2E1) | IC50 [5] | Ki [5]

O=C(O)CCCc1ccc(N(CCCl)CCCl)cc1 [CHLORAMBUCIL]
Not Active: IC50 (Leukotriene C4 synthase) | IC50 [1] | Ki [1] | IC50 [2] | IC50 [3] | IC50 (Cathepsin G) | IC50 (Cytochrome P450 2C9) | Ki (Cytochrome P450 2C9) | IC50 [4] | IC50 (Cytochrome P450 2E1) | Ki (Cytochrome P450 2E1) | IC50 [5] | Ki [5]

From ChEMBL document CHEMBL1909046, “DrugMatrix in vitro pharmacology data”
